Reference: patent publication US20240051976A1, “A Tracer Compound and a Preparation Method Thereof” (Turun Yliopisto, priority 2020, published 2024)

Tests used:
[1] = PET/CT, biodistribution and elimination in control SCID mice; assay type: in vivo, mouse; conditions: intravenous
Protocol: [^18F]AmBF3-Tz ([^18F]4) was formulated in 10% ethanol in 0.01 M PBS and administered intravenously to SCID mice. The PET/CT image was acquired with Inveon PET/CT and Molecubes PET and CT.
[^18F]AmBF3-Tz ([^18F]4) was formulated in 10% ethanol in 0.01 M PBS and administered intravenously to SCID mice. The standardized uptake values (SUVs) presenting the elimination profile (FIGS. 13a and 13b) were determined from the PET image by drawing regions-of-interest (ROI) around selected organs (heart, liver, kidney, lung, muscle, urinary bladder) and by measuring the ratio of radioactivity per unit volume of that ROI and normalized to the injected dose.

B16/F10 melanoma cells = assay: Nonspecific B16/F10 melanoma cell-uptake (free, membrane-bound, internalized fractions); assay type: cell-based, mouse; conditions: for radioactivity in the free fraction outside the cells: n=3
Protocol: Rat pancreatic tumor cell line AR42J that expresses SSTR was obtained from American Type Culture Collection (Manassas, VA). C4-2 cells (ATCC® CRL-3314™) were cultured in DMEM medium (Gibco) supplemented with 18% F12 medium (Sigma), 10% FBS (Gibco) and 1% T-medium. Both cell lines were grown in at 37° C. in a humidified incubator containing 5% C02. Cells grown to 80%-90% confluence were used for either in vitro or in vivo experiments. Mouse skin melanoma B16/F10 cells were cultured in CO2 Independent Medium (Life Technologies Gibco, cat. #18045054) supplemented with GlutaMax (1× final concentration, 10% FBS and Pen-Strep at 37° C. in a humidified incubator. The B16/F10 cell viability was 97%. The C4-2 cells (ATCC® CRL-3314™) were cultured in DMEM medium (Gibco) supplemented with 18% F12 medium (Sigma), 10% FBS (Gibco) and 1% T-medium. Both cell lines were grown in at 37° C. in a humidified incubator containing 5% C02. Cells grown to 80%-90% confluence were used for either in vitro or in vivo experiments.
500 000 cells/well were seeded overnight on 6-well plates. The growth media was removed and the reaction media containing the radiotracer [^18F]4 was added. […] The membrane-bound fraction was collected by adding cold glycine buffer (1 mL) on the cells, incubating for 5 minutes on an ice bath, removing the supernatant, repeating the procedure, and washing the cells with cold 1×PBS, and collecting all the supernatants to the same microtube. For determining the internalized fraction, 1 M NaOH was added on the cells and left to incubate in ambient temperature for 10 minutes. The supernatant was removed and the cells were washed twice with cold 1×PBS, and the supernatants were collected into the same microtube. The supernatants collected separately in each phase, were measure with a gamma counter for determining the radioactivity-ratio (%) of each fraction. […] The radioactivity distribution between the aforementioned fractions is depicted in FIG. 9.

main elimination route [1]: through kidneys
in vivo stability (bone uptake) ([1]; PET/CT and biodistribution): excellent stability
radioactivity in the free fraction outside the cells (B16/F10 melanoma cells; B16/F10 cells, 15 min): 99.3±0.09%
radioactivity in the free fraction outside the cells (B16/F10 melanoma cells; B16/F10 cells, 240 min): 99.3±0.08%
% of total radioactivity in the free fraction (B16/F10 melanoma cells; B16/F10 cells, at each time point (FIG. 9)): Over 99%
Structure (SMILES): C[N+](C)(CCNC(=O)Cc1ccc(-c2nncnn2)cc1)C[B-](F)(F)F [[^18F]4, {[(2-{2-[4-(1,2,4,5-tetrazin-3-yl)phenyl]acetamido}ethyl)dimethylammonio]methyl}trifluoroborate]
nonspecific uptake in B16/F10 cells (B16/F10 melanoma cells; throughout the study): did not demonstrate nonspecific uptake
